Source: patent US12102648B2, “Orally-bioavailable nucleoside analogs” (priority 2021, dated 2024)
Read-outs that look alike come from different tables or passages of the source.

Experiment: in vitro
Assay type: in vitro ADME
Conditions: human
In short: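 Caco-2 monolayers cultured 19 days on inserts (TEER >600 […]); bidirectional A-to-B and B-to-A transport at 37° C over 90 min, samples quantified by LC/MS/MS. Papp, efflux ratio and recovery calculated; ER >2 flags potential efflux substrates.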

SMILES	Papp A→B at 90 min (Caco-2)	Papp B→A at 90 min (Caco-2)	efflux ratio at 90 min (Caco-2)	Papp A→B at 90 min (Caco-2 monolayer, apical to basolateral, 90-minute incubation, read-out: Papp, A-B)	Papp B→A at 90 min (Caco-2 monolayer, basolateral to apical, 90-minute incubation, read-out: Papp, B-A)	efflux ratio at 90 min (Caco-2 monolayer, ER>2 indicates potential efflux transporter substrate, read-out: ER (efflux ratio))
CC1(C)CCC(CC(=O)OC[C@H]2O[C@@](C#N)(c3ccc4c(N)ncnn34)[C@H](O)[C@@H]2O)CC1 [Compound 272, ((2R,3S,4R,5R)-5-(4-aminopyrrolo[2,1-f][1,2,4]triazin-7-yl)-5-cyano-3,4-dihydroxytetrahydrofuran-2-yl)methyl 2-(4,4-dimethylcyclohexyl)acetate]	1.2 ×10⁻⁶ cm/s	0.64 ×10⁻⁶ cm/s	0.52			
CCCCCOC(=O)Nc1ncnn2c([C@]3(C#N)O[C@H](CO)[C@@H](O)[C@H]3O)ccc12 [Compound 81, pentyl (7-((2R,3R,4S,5R)-2-cyano-3,4-dihydroxy-5-(hydroxymethyl)tetrahydrofuran-2-yl)pyrrolo[2,1-f][1,2,4]triazin-4-yl)carbamate]	1 ×10⁻⁶ cm/s	14.7 ×10⁻⁶ cm/s	14			
CC(C)[C@H](N)C(=O)O[C@H]1[C@@H](OC(=O)[C@@H](N)C(C)C)[C@](C#N)(c2ccc3c(N)ncnn23)O[C@@H]1COC(=O)Cc1ccccc1 [Compound 351, (2R,3R,4R,5R)-2-(4-aminopyrrolo[2,1-f][1,2,4]triazin-7-yl)-2-cyano-5-((2-phenylacetoxy)methyl)tetrahydrofuran-3,4-diyl (2S,2'S)-bis(2-amino-3-methylbutanoate)]				0.17 ×10⁻⁶ cm/s	0.92 ×10⁻⁶ cm/s	5.5
CNc1nc(N)nc2c1ncn2[C@@H]1O[C@H](COC(C)=O)[C@@H](O)[C@@]1(C)F [Compound 178, ((2R,3R,4R,5R)-5-(2-amino-6-(methylamino)-9H-purin-9-yl)-4-fluoro-3-hydroxy-4-methyltetrahydrofuran-2-yl)methyl acetate]	6.7 ×10⁻⁶ cm/s	4.4 ×10⁻⁶ cm/s	0.7			
Cc1oc(=O)oc1COC(=O)Nc1ncnn2c([C@]3(C#N)O[C@H](COC(=O)CC4CCCCC4)[C@@H](OC(=O)[C@@H](N)C(C)C)[C@H]3O)ccc12 [Compound 385, (2R,3S,4R,5R)-5-cyano-2-((2-cyclohexylacetoxy)methyl)-4-hydroxy-5-(4-((((5-methyl-2-oxo-1,3-dioxol-4-yl)methoxy)carbonyl)amino)pyrrolo[2,1-f][1,2,4]triazin-7-yl)tetrahydrofuran-3-yl L-valinate]	< 1 ×10⁻⁶ cm/s	< 1 ×10⁻⁶ cm/s				
CC(C)C(=O)Nc1ncnn2c([C@]3(C#N)O[C@H](COC(=O)CC4CCCCC4)[C@@H](OC(=O)[C@@H](N)C(C)C)[C@H]3O)ccc12 [Compound 349, (2R,3S,4R,5R)-5-cyano-2-((2-cyclohexylacetoxy)methyl)-4-hydroxy-5-(4-isobutyramidopyrrolo[2,1-f][1,2,4]triazin-7-yl)tetrahydrofuran-3-yl L-valinate]	1.9 ×10⁻⁶ cm/s	10 ×10⁻⁶ cm/s	5.6			
N#C[C@@]1(c2ccc3c(N)ncnn23)O[C@H](COC(=O)CC2(N)CCCCC2)[C@@H](OC(=O)CC2CCCCC2)[C@H]1O [Compound 368, (2R,3S,4R,5R)-2-((2-(1-aminocyclohexyl)acetoxy)methyl)-5-(4-aminopyrrolo[2,1-f][1,2,4]triazin-7-yl)-5-cyano-4-hydroxytetrahydrofuran-3-yl 2-cyclohexylacetate]	1.4 ×10⁻⁶ cm/s	18 ×10⁻⁶ cm/s	13			
CC(C)C(=O)OC[C@H]1O[C@@](C#N)(c2ccc3c(N)ncnn23)[C@H](O)[C@@H]1OC(=O)C(C)C [Compound 62, (2R,3S,4R,5R)-5-(4-aminopyrrolo[2,1-f][1,2,4]triazin-7-yl)-5-cyano-4-hydroxy-2-((isobutyryloxy)methyl)tetrahydrofuran-3-yl isobutyrate]	3 ×10⁻⁶ cm/s	2.4 ×10⁻⁶ cm/s	0.8			
CCCCCOC(=O)Nc1ncnn2c([C@]3(C#N)O[C@H](COC(=O)CC4CCCCC4)[C@@H](O)[C@H]3O)ccc12 [Compound 88, ((2R,3S,4R,5R)-5-cyano-3,4-dihydroxy-5-(4-(((pentyloxy)carbonyl)amino)pyrrolo[2,1-f][1,2,4]triazin-7-yl)tetrahydrofuran-2-yl)methyl 2-cyclohexylacetate]	2.1 ×10⁻⁶ cm/s	1.6 ×10⁻⁶ cm/s	0.78			
CCC(=O)O[C@H]1[C@@H](O)[C@](C#N)(c2ccc3c(N)ncnn23)O[C@@H]1COC(=O)CC1CCCCC1 [Compound 31, (2R,3S,4R,5R)-5-(4-aminopyrrolo[2,1-f][1,2,4]triazin-7-yl)-5-cyano-2-((2-cyclohexylacetoxy)methyl)-4-hydroxytetrahydrofuran-3-yl propionate]	5.6 ×10⁻⁶ cm/s	5.6 ×10⁻⁶ cm/s	1			
CCC(=O)OC[C@H]1O[C@@](C#N)(c2ccc3c(N)ncnn23)[C@H](O)[C@@H]1OCOC(=O)C(C)(C)C [Compound 72, {[(2R,3S,4R,5R)-5-{4-aminopyrrolo[2,1-f][1,2,4]triazin-7-yl}-5-cyano-4-hydroxy-2-[(propanoyloxy)methyl]oxolan-3-yl]oxy}methyl 2,2-dimethylpropanoate]	5.8 ×10⁻⁶ cm/s	3.2 ×10⁻⁶ cm/s	0.55			
CC(C)[C@H](N)C(=O)Nc1ncnn2c([C@]3(C#N)O[C@H](COC(=O)[C@@H](N)C(C)C)[C@@H](O)[C@H]3O)ccc12 [Compound 110, ((2R,3S,4R,5R)-5-(4-((S)-2-amino-3-methylbutanamido)pyrrolo[2,1-f][1,2,4]triazin-7-yl)-5-cyano-3,4-dihydroxytetrahydrofuran-2-yl)methyl L-valinate]	0.02 ×10⁻⁶ cm/s	0.33 ×10⁻⁶ cm/s	15			
CCCCC(=O)Nc1ncnn2c([C@]3(C#N)O[C@H](COC(C)=O)[C@@H](O)[C@H]3O)ccc12 [Compound 288, ((2R,3S,4R,5R)-5-cyano-3,4-dihydroxy-5-(4-pentanamidopyrrolo[2,1-f][1,2,4]triazin-7-yl)tetrahydrofuran-2-yl)methyl acetate]	0.91 ×10⁻⁶ cm/s	6.9 ×10⁻⁶ cm/s	7.7			
N#C[C@@]1(c2ccc3c(N)ncnn23)O[C@H](COC(=O)CC2CCOCC2)[C@@H](O)[C@H]1O [Compound 257, ((2R,3S,4R,5R)-5-(4-aminopyrrolo[2,1-f][1,2,4]triazin-7-yl)-5-cyano-3,4-dihydroxytetrahydrofuran-2-yl)methyl 2-(tetrahydro-2H-pyran-4-yl)acetate]	0.03 ×10⁻⁶ cm/s	1.4 ×10⁻⁶ cm/s	46			
CC(C)(C(=O)OC[C@H]1O[C@@](C#N)(c2ccc3c(N)ncnn23)[C@H](O)[C@@H]1O)C1CCCCC1 [Compound 269, ((2R,3S,4R,5R)-5-(4-aminopyrrolo[2,1-f][1,2,4]triazin-7-yl)-5-cyano-3,4-dihydroxytetrahydrofuran-2-yl)methyl 2-cyclohexyl-2-methylpropanoate]	15 ×10⁻⁶ cm/s	20 ×10⁻⁶ cm/s	1.3			
CC(C)(C)[C@H](N)C(=O)OC[C@H]1O[C@@](C#N)(c2ccc3c(N)ncnn23)[C@H](O)[C@@H]1O [Compound 410, ((2R,3S,4R,5R)-5-(4-aminopyrrolo[2,1-f][1,2,4]triazin-7-yl)-5-cyano-3,4-dihydroxytetrahydrofuran-2-yl)methyl (S)-2-amino-3,3-dimethylbutanoate]	0.47 ×10⁻⁶ cm/s	1.49 ×10⁻⁶ cm/s	3.2			
